Patent US11440899B2, “Pyrimidine TBK/IKKe inhibitor compounds and uses thereof” (Merck Patent GmbH, priority 2017, dated 2022)
Where a name gives a salt, the structure may show the parent alone.

Columns and labels:
[1] = target: IKKe (Homo sapiens (Human), UniProt Q14164); assay: IKKe Biochemical Assay
Procedure: IKKe Biochemical Assay Test compounds were transferred into Labcyte polypropylene 384 well plates ([…]-25) and diluted to 3 mM using DMSO. 3 mM test compounds were dispensed using Labcyte ECHO dose response module into Greiner 784075 plates (columns 3-12 and 13-22, 10 point 1:4) so that high concentration was 30 uM final. 100 uM of a reference compound (1 uM final high concentration). Backfilling was performed if necessary so that all wells contain 1% DMSO final: add 75 nl DMSO/well into columns 1, 2 and 24 using Labcyte Echo. add 75 nl 1.0 mM staurosporine/well into column 23 using Labcyte Echo (10 uM final) add 4.5 ul enzyme/well using multidrop dispenser add 3 ul substrate/well using multidrop dispenser incubate at 25° C. for 90 min. add 7.5 ul 2× stop buffer read on labchip ez reader II using IKKε. job Raw data files were opened in the Caliper LabChip Reviewer program (Version 3.0.265.0 SP2) and peak assignments were adjusted to reflect “substrate first” with the software's post-run analysis options. A spline-fit baseline was applied using the software's analysis algorithm.

[2] = target: TBK1 (Homo sapiens (Human), UniProt Q9UHD2); assay: TBK Biochemical Assay
Procedure: Example 106: TBK Biochemical Assay Test compounds were transferred into Labcyte polypropylene 384 well plates ([…]-25) and diluted to 3 mM using DMSO. 3 mM test compounds were dispensed using Labcyte ECHO dose response module into Greiner 784075 plates (columns 3-12 and 13-22, 10 point 1:4) so that high concentration was 30 uM final. 100 uM of a reference compound (1 uM final high concentration). Backfilling was performed if necessary so that all wells contain 1% DMSO final: add 75 nl DMSO/well into columns 1, 2 and 24 using Labcyte Echo. add 75 nl 1.0 mM staurosporine/well into column 23 using Labcyte Echo (10 uM final) add 4.5 ul enzyme/well using multidrop dispenser add 3 ul substrate/well using multidrop dispenser incubate at 25° C. in Heidolph incubator for 90 min. add 7.5 ul 2× stop buffer using multidrop dispenser read on labchip ez reader II using TBK1.job Raw data files were opened in the Caliper LabChip Reviewer program (Version 3.0.265.0 SP2) and peak assignments were adjusted to reflect “substrate first” with the software's post-run analysis options. A spline-fit baseline was applied using the software's analysis algorithm.

Chain of IKKe (Q14164 whole entry, species assumed): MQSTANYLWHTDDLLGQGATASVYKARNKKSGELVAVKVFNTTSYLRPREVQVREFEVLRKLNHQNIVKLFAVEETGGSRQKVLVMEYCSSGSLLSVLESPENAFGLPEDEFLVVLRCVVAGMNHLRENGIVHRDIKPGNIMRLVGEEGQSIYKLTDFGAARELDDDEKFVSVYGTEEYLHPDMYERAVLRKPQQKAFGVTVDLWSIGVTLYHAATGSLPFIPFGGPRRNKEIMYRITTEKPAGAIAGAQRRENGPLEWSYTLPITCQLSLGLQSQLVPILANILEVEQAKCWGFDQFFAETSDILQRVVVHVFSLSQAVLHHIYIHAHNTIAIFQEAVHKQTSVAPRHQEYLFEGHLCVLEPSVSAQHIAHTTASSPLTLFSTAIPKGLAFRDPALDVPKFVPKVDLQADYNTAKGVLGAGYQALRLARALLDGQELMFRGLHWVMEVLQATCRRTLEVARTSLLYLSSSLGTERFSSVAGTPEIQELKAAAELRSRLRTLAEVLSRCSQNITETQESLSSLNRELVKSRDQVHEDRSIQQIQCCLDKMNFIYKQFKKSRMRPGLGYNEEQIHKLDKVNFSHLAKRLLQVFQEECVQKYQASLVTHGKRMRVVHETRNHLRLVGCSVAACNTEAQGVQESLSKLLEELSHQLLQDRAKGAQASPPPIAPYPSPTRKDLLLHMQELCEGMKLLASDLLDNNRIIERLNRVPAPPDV
Chain of TBK1 (Q9UHD2 whole entry, species assumed): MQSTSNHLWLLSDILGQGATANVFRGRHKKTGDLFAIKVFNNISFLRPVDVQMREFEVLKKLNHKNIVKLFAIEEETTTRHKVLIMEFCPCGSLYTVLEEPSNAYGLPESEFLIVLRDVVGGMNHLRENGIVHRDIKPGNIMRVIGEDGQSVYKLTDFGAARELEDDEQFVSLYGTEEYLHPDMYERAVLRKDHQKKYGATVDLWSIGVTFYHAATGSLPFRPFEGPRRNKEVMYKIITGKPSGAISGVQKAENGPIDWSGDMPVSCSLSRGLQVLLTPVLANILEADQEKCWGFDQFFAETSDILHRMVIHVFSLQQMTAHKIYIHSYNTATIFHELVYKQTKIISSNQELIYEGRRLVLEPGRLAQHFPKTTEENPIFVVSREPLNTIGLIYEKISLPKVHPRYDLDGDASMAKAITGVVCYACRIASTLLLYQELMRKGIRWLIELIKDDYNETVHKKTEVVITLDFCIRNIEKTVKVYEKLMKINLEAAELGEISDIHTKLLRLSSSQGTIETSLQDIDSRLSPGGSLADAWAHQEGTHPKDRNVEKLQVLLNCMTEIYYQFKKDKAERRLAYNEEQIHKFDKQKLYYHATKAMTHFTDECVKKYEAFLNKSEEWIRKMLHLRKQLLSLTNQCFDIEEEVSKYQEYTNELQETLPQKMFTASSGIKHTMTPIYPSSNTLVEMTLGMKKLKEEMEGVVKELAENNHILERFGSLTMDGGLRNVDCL

Row | SMILES | IC50 [1] | IC50 [2]
1 | COc1nc(Nc2cc(-c3ccc(OC4CCOCC4)c(C#N)c3)ncn2)ccc1C(=O)N1CC2CC(C1)O2 [Example 3, 5-(6-[[6-methoxy-5-([6-oxa-3-azabicyclo[3.1.1]heptan-3-yl]carbonyl)pyridin-2-yl]amino]pyrimidin-4-yl)-2-(oxan-4-yloxy)benzonitrile] | < 100 nM | < 100 nM
2 | COc1nc(Nc2cc(-c3ccc(OC4CCOCC4)c(C#N)c3)ncn2)ccc1C(=O)NC1CCN(C)CC1 [Example 7, 6-([6-[3-cyano-4-(oxan-4-yloxy)phenyl]pyrimidin-4-yl]amino)-2-methoxy-N-(1-methylpiperidin-4-yl)pyridine-3-carboxamide hydrochloride] | < 100 nM | < 100 nM
3 | COc1nc(Nc2cc(-c3ccc(OC4CCOCC4)c(C#N)n3)ncn2)ccc1C(=O)N(C)C [Example 8, 6-([6-[6-cyano-5-(oxan-4-yloxy)pyridin-2-yl]pyrimidin-4-yl]amino)-2-methoxy-N,N-dimethylpyridine-3-carboxamide] | 1000 to 5000 nM | 1000 to 5000 nM
4 | COc1nc(Nc2cc(-c3ccc(OC4CCOCC4)c(C#N)c3)ncn2)ccc1N1CCN(C)CC1 [Example 12, 5-(6-[[6-methoxy-5-(4-methylpiperazin-1-yl)pyridin-2-yl]amino]pyrimidin-4-yl)-2-(oxan-4-yloxy)benzonitrile] | < 100 nM | < 100 nM
5 | COc1nc(Nc2cc(-c3ccc(OC4CCOCC4)c(C#N)c3)ncn2)ccc1N(C)CC(=O)N(C)C [Example 13, 2-[[6-([6-[3-cyano-4-(oxan-4-yloxy)phenyl]pyrimidin-4-yl]amino)-2-methoxypyridin-3-yl](methyl)amino]-N,N-dimethylacetamide] | < 100 nM | < 100 nM
6 | COc1nc(Nc2cc(-c3ccc(OC4CCOCC4)c(C#N)c3)ncn2)ccc1N1CCN(CC(F)F)CC1 [Example 14, 5-[6-([5-[4-(2,2-difluoroethyl)piperazin-1-yl]-6-methoxypyridin-2-yl]amino)pyrimidin-4-yl]-2-(oxan-4-yloxy)benzonitrile] | < 100 nM | < 100 nM
7 | COc1nc(Nc2cc(-c3ccc(OC4CCOCC4)c(C#N)c3)ncn2)ccc1N1C[C@@H](C)O[C@@H](C)C1 [Example 15, 5-[6-([5-[(2R,6S)-2,6-dimethylmorpholin-4-yl]-6-methoxypyridin-2-yl]amino)pyrimidin-4-yl]-2-(oxan-4-yloxy)benzonitrile] | < 100 nM | < 100 nM
8 | COc1nc(Nc2cc(-c3ccc(OC4CCOCC4)c(C#N)c3)ncn2)ccc1N1C[C@@H](C)N(C2COC2)[C@@H](C)C1 [Example 16, 5-[6-([5-[(3R,5S)-3,5-dimethyl-4-(oxetan-3-yl)piperazin-1-yl]-6-methoxypyridin-2-yl]amino)pyrimidin-4-yl]-2-(oxan-4-yloxy)benzonitrile] | < 100 nM | < 100 nM
9 | COc1nc(Nc2cc(-c3ccc(OC4CCOCC4)c(C#N)c3)ncn2)ccc1C1CCNCC1 [Example 17, 5-(6-[[6-methoxy-5-(piperidin-4-yl)pyridin-2-yl]amino]pyrimidin-4-yl)-2-(oxan-4-yloxy)benzonitrile] | < 100 nM | < 100 nM
10 | COc1nc(Nc2cc(-c3ccc(OC4CCOCC4)c(C#N)c3)ncn2)ccc1C1CCN(C)CC1 [Example 18, 5-(6-[[6-methoxy-5-(1-methylpiperidin-4-yl)pyridin-2-yl]amino]pyrimidin-4-yl)-2-(oxan-4-yloxy)benzonitrile] | < 100 nM | < 100 nM
11 | COc1nc(Nc2cc(-c3ccc(OC4CCOCC4)c(C#N)c3)ncn2)ccc1CNC1CCN(C)CC1 [Example 19, 5-[6-[(6-methoxy-5-[[(1-methylpiperidin-4-yl)amino]methyl]pyridin-2-yl)amino]pyrimidin-4-yl]-2-(oxan-4-yloxy)benzonitrile] | < 100 nM | < 100 nM
12 | COc1nc(Nc2cc(-c3ccc(OC4CCOCC4)c(C#N)c3)ncn2)ccc1C1CCN(C)C1 (stereo not shown) [Example 20, 5-(6-[[6-methoxy-5-(1-methylpyrrolidin-3-yl)pyridin-2-yl]amino]pyrimidin-4-yl)-2-(oxan-4-yloxy)benzonitrile] | < 100 nM | < 100 nM
13 | COc1nc(Nc2cc(-c3cc(C#N)c(OC4CCOCC4)cn3)ncn2)ccc1N1CCN(C)CC1 [Example 21, 2-(6-[[6-methoxy-5-(4-methylpiperazin-1-yl)pyridin-2-yl]amino]pyrimidin-4-yl)-5-(oxan-4-yloxy)pyridine-4-carbonitrile] | < 100 nM | < 100 nM
14 | COc1nc(Nc2cc(-c3ccc(OC4CCOCC4)c(C#N)n3)ncn2)ccc1N1CCN(C)CC1 [Example 22, 6-(6-[[6-methoxy-5-(4-methylpiperazin-1-yl)pyridin-2-yl]amino]pyrimidin-4-yl)-3-(oxan-4-yloxy)pyridine-2-carbonitrile] | 100 to 1000 nM | 100 to 1000 nM
15 | COc1nc(Nc2cc(-c3cnc(OC4CCOCC4)c(C#N)c3)ncn2)ccc1N1CCN(C)CC1 [Example 23, 5-(6-[[6-methoxy-5-(4-methylpiperazin-1-yl)pyridin-2-yl]amino]pyrimidin-4-yl)-2-(oxan-4-yloxy)pyridine-3-carbonitrile] | < 100 nM | < 100 nM
16 | COc1nc(Nc2cc(-c3cc(C#N)c(OC4CCOCC4)cn3)ncn2)ccc1C1CCN(C)CC1 [Example 24, 2-(6-[[6-methoxy-5-(1-methylpiperidin-4-yl)pyridin-2-yl]amino]pyrimidin-4-yl)-5-(oxan-4-yloxy)pyridine-4-carbonitrile] | < 100 nM | < 100 nM
17 | COc1nc(Nc2cc(-c3ccc(O[C@@H]4CCN(C(=O)CO)CC4(F)F)c(C#N)c3)ncn2)ccc1N1CCN(C)CC1 [Example 61, 2-[[(4R)-3,3-difluoro-1-(2-hydroxyacetyl)piperidin-4-yl]oxy]-5-(6-[[6-methoxy-5-(4-methylpiperazin-1-yl)pyridin-2-yl]amino]pyrimidin-4-yl)benzonitrile] |  | < 100 nM

More lines, now with the values ahead:

Row | IC50 [1] | IC50 [2] | SMILES
18 | < 100 nM | < 100 nM | COc1nc(Nc2cc(-c3ccc(OC4CCOCC4)c(C#N)c3)ncn2)ccc1C(=O)N(C)C [Example 1, 6-([6-[3-cyano-4-(oxan-4-yloxy)phenyl]pyrimidin-4-yl]amino)-2-methoxy-N,N-dimethylpyridine-3-carboxamide]
19 | < 100 nM | < 100 nM | COc1nc(Nc2cc(-c3ccc(OC4CCOCC4)c(C#N)c3)ncn2)ccc1C(=O)N(C)CCO [Example 2, 6-([6-[3-cyano-4-(oxan-4-yloxy)phenyl]pyrimidin-4-yl]amino)-N-(2-hydroxyethyl)-2-methoxy-N-methylpyridine-3-carboxamide]
20 | < 100 nM | < 100 nM | COc1nc(Nc2cc(-c3ccc(OC4CCOCC4)c(C#N)c3)ncn2)ccc1C(=O)NC1C2COCC21 (stereo not shown) [Example 4, 6-([6-[3-cyano-4-(oxan-4-yloxy)phenyl]pyrimidin-4-yl]amino)-2-methoxy-N-[3-oxabicyclo[3.1.0]hexan-6-yl]pyridine-3-carboxamide]
21 | < 100 nM | < 100 nM | COc1nc(Nc2cc(-c3ccc(OC4CCOCC4)c(C#N)c3)ncn2)ccc1C(=O)N1CC2CCC(C1)O2 [Example 5, 5-(6-((5-(8-oxa-3-azabicyclo[3.2.1]octane-3-carbonyl)-6-methoxypyridin-2-yl)amino)pyrimidin-4-yl)-2-((tetrahydro-2H-pyran-4-yl)oxy)benzonitrile]
22 | < 100 nM | < 100 nM | COc1nc(Nc2cc(-c3ccc(OC4CCOCC4)c(C#N)c3)ncn2)ccc1C(=O)N1CC2COCC2C1 (stereo not shown) [Example 6, 5-(6-[[5-([hexahydro-1H-furo[3,4-c]pyrrol-5-yl]carbonyl)-6-methoxypyridin-2-yl]amino]pyrimidin-4-yl)-2-(oxan-4-yloxy)benzonitrile]
23 | < 100 nM | < 100 nM | COc1nc(Nc2cc(-c3cnc(OC4CCOCC4)c(C#N)c3)ncn2)ccc1C(=O)N(C)C [Example 9, 6-([6-[5-cyano-6-(oxan-4-yloxy)pyridin-3-yl]pyrimidin-4-yl]amino)-2-methoxy-N,N-dimethylpyridine-3-carboxamide hydrochloride]
24 | < 100 nM | < 100 nM | COc1nc(Nc2cc(-c3ccc(OC4CCOCC4)c(C#N)c3)ncn2)ccc1N1CCS(=O)(=O)CC1 [Example 10, 5-(6-[[5-(1,1-dioxo-1λ,4-thiomorpholin-4-yl)-6-methoxypyridin-2-yl]amino]pyrimidin-4-yl)-2-(oxan-4-yloxy)benzonitrile]
25 | < 100 nM | < 100 nM | COc1nc(Nc2cc(-c3ccc(OC4CCOCC4)c(C#N)c3)ncn2)ccc1N(C)CCN(C)C [Example 11, 5-[6-[(5-[[2-(dimethylamino)ethyl](methyl)amino]-6-methoxypyridin-2-yl)amino]pyrimidin-4-yl]-2-(oxan-4-yloxy)benzonitrile]
